Test results: patent US5981577A, “α-methylene peperomins and halogenated derivatives thereof” (Development Center for Biotechnology, priority 1998, dated 1999)
≈ marks a conversion by molar mass, not a printed value. Where two headings read alike, the source gives them in different places.

Legend:
COLO 205 = assay: in vitro cytotoxicity by the MTT assay, COLO 205; assay type: cell-based, human
Procedure: (§1) Compounds 1-9 were evaluated for in vitro cytotoxicity by the MTT assay, against four types of human tumor cell lines, including COLO 205, HA22T, SKBR3, and MOLT-4.
(§2) COLO 205 was grown as a monolayer in RPMI 1640 (Gibco) with 10% fetal serum (FBS, Hyclon). HA22T/VGH was grown as a monolayer in DMEM/F12 medium (Gibco) supplemented with 10% FBS and […] nonessential amino acid (Gibco, BRL). SKBr3 was grown as a monolayer in DMEM/F12 medium (Gibco) with 10% FCS and 1% penicillin/streptomycin (Gibco, BRL). MOLT-4 was grown as a suspension cell line in RPMI 1640 supplemented with 10% FCS and 1% penicillin/streptomycin (Gibco, BRL). Exponentially growing cell cultures were maintained in a humidified incubator (NAPCO, Model 5410) with an atmosphere of 5% CO2 -95% air at 37° C.
(§3) In principle, the assay is dependent on the cellular reduction of MTT (Sigma Chemical Co.) by the mitochondrial dehydrogenase of viable cells to a dark blue formazan product. The viable cell number is directly proportional to the production of formazan, which can be measured spectrophotometrically following solubilization.
(§4) Single cell suspensions were obtained by mechanical disaggregation of the floating cell line (MOLT-4) and by trypsinization of the monolayer cultures (COLO 205, HA22T/VGH, SKBr3) and counted by trypan blue exclusion. The cell suspensions (180 μl) were added into 96-well microtiter plates (Nunc 67008) using a multichannel pipette, and the incubation was allowed for 24 h.
(§5) Each test compound was dissolved in a 10% DMSO (Sigma, D-8779) and 90% DPBS solution. 20 μl of this solution was dispensed to each microtiter plate well, and diluted to give final concentrations ranging from 100 μg/ml to 0.01 μg/ml by 10-fold dilutions. The cells were then incubated in the presence of the drug (the test compound) for a further 72 h. At the end of this time, 20 μl of a MTT solution (5 mg/ml) was added to each well and the incubation was allowed a further 4 h. After this time, the culture plates containing suspension lines or any detached cells were centrifuged at a low speed of 1000 rpm for 5 min. 170 μl of the culture medium supernatant was removed from each well and replaced by 200 μl of DMSO. After the solubilization of formazans, the optical density was then read by an automated spectrophotometric plate reader (ELISA, Molecular Device Emax) at a wavelength of 545-690 nm. Readings were transferred to a microcomputer and final reports were generated using especially developed software.

HA22T = assay: in vitro cytotoxicity by the MTT assay, HA22T; assay type: cell-based, human; conditions: 72 h
Procedure: as §1, §2, §3, §4, §5

SKBR3 = assay: in vitro cytotoxicity by the MTT assay, SKBR3; assay type: cell-based, human
Procedure: as §1, §2, §3, §4, §5

MOLT-4 = assay: in vitro cytotoxicity by the MTT assay, MOLT-4; assay type: cell-based, human
Procedure: as §1, §2, §3, §4, §5

leukemia cells = conditions: versus other solid tumor cells; cited from earlier work
[1] = Homo sapiens, COLO 205, MTT, 72 h, read-out: IC50
[2] = Homo sapiens, MTT, read-out: IC50
[3] = Homo sapiens, SK-BR-3, SKBR3, MTT, 72 h, read-out: IC50
[4] = Homo sapiens, MOLT-4, MTT, 72 h, read-out: IC50

| Compound | IC50 (COLO 205; [1]) [µg/mL] | IC50 (HA22T; [2]) [µg/mL] | IC50 (SKBR3; [3]) [µg/mL] | IC50 (MOLT-4; [4]) [µg/mL] | IC50 (COLO 205; COLO 205, MTT, 72 h) [µg/mL] | IC50 (HA22T; MTT) [µg/mL] | IC50 (SKBR3; SKBR3, MTT, 72 h) [µg/mL] | IC50 (MOLT-4; MOLT-4, MTT, 72 h) [µg/mL] | also measured |
| --- | --- | --- | --- | --- | --- | --- | --- | --- | --- |
| COc1cc(C(c2cc(OC)c(OC)c(OC)c2Br)[C@H]2COC(=O)[C@@H]2CBr)c(Br)c(OC)c1OC (relative stereo) [Compound 2, 2-Bromomethyl-3-[bis(2-bromo-3,4,5-trimethoxy)phenyl]-methyl γ-butyrolactone] | 5 (≈ 7.32 µM) | 6.6 (≈ 9.66 µM) | 3.7 (≈ 5.42 µM) | 3.1 (≈ 4.54 µM) |  |  |  |  |  |
| COc1cc(C(c2cc(OC)c(OC)c(OC)c2Br)[C@@H]2COC(=O)[C@@H]2CBr)c(Br)c(OC)c1OC (relative stereo) [Compound 4, 2-Bromomethyl-3-[bis(2-bromo-3,4,5-trimethoxy)phenyl]-methyl γ-butyrolactone] | 4.2 (≈ 6.15 µM) | 6.4 (≈ 9.37 µM) | 4.9 (≈ 7.17 µM) | 4.9 (≈ 7.17 µM) |  |  |  |  |  |
| C=C1C(=O)OCC1C(c1cc(OC)c(OC)c(OC)c1)c1cc(OC)c(OC)c(OC)c1 (stereo not drawn) [Compound 1, 2-Methylene-3-[bis(3,4,5-trimethoxy)phenyl]methyl γ-butyrolactone] | 2.3 (≈ 5.17 µM) | 7.1 (≈ 16 µM) | 4 (≈ 9 µM) | 2.8 (≈ 6.3 µM) |  |  |  |  |  |
| C=C1C(=O)OCC1C(c1ccc2c(c1)OCO2)c1cc(OC)c(OC)c(OC)c1 (stereo not drawn) [Compound 3, 2-Methylene-3-[1-(3,4-methylenedioxy)phenyl-1'-(3,4,5-trimethoxy)phenyl]methyl γ-butyrolactone] | 5.8 (≈ 14.6 µM) | 6.4 (≈ 16.1 µM) | 4.6 (≈ 11.5 µM) | 4.3 (≈ 10.8 µM) |  |  |  |  |  |
| C=C1C(=O)OCC1C(c1cc(OC)c(OC)c(OC)c1Br)c1cc(OC)c(OC)c(OC)c1Br (stereo not drawn) [Compound 6, 2-Methylene-3-[bis(2-bromo-3,4,5-trimethoxy)phenyl]methyl γ-butyrolactone] | 6.7 (≈ 11.1 µM) | 5.9 (≈ 9.8 µM) | 3.7 (≈ 6.14 µM) | 4.3 (≈ 7.14 µM) |  |  |  |  |  |
| C=C1C(=O)OCC1C(c1cc(OC)c(OC)c(OC)c1)c1cc(OC)c2c(c1)OCO2 (stereo not drawn) [Compound 7, 2-Methylene-3-[1-(3,4-methylenedioxy-5-methoxy)phenyl-1'-(3,4,5-trimethoxy)phenyl]methyl γ-butyrolactone] | 4.4 (≈ 10.3 µM) | 7.1 (≈ 16.6 µM) | 4.6 (≈ 10.7 µM) | 3 (≈ 7 µM) |  |  |  |  |  |
| COc1cccc2c1C(=O)c1c(O)c3c(c(O)c1C2=O)C[C@@](O)(C(=O)CO)C[C@@H]3O[C@H]1C[C@H](N)[C@H](O)[C@H](C)O1 [DOXORUBICIN, reference compound] |  |  |  |  |  |  |  |  | IC50 (COLO 205; Homo sapiens, COLO 205, 72 h): 0.2 µg/mL (≈ 0.368 µM); IC50 (HA22T; Homo sapiens): 0.2 µg/mL (≈ 0.368 µM); IC50 (SKBR3; Homo sapiens, SK-BR-3, 72 h): 0.1 µg/mL (≈ 0.184 µM); IC50 (MOLT-4; Homo sapiens, MOLT-4, 72 h): 0.01 µg/mL (≈ 0.0184 µM); hypersensitivity to MOLT-4 leukemia cell line (MOLT-4; as compared to other solid tumor cells): hypersensitivity towards leukemia cells as compared to other solid tumor cells; hypersensitivity towards leukemia cells (leukemia cells): hypersensitivity towards leukemia cells versus other solid tumor cells |
| 2-Methylene-3-[1-(2(or 6)-bromo-3,4-methylenedioxy)-phenyl-1'-(2-bromo-3,4,5-trimethoxy)phenyl]methyl γ-butyrolactone [Compound 5] |  |  |  |  | 6.8 | 5.9 | 5.3 | 3.9 |  |
| COc1cc(C(c2cc(OC)c3c(c2Br)OCO3)C2COC(=O)C2CBr)c(Br)c(OC)c1OC (stereo not drawn) [Compound 8, 2-Bromomethyl-3-[1-(2(or 6)-bromo-3,4-methylenedioxy-5-methoxy)phenyl-1'-(2-bromo-3,4,5-trimethoxy)phenyl]methyl γ-butyrolactone] |  |  |  |  | 6.1 (≈ 9.14 µM) | 5.8 (≈ 8.69 µM) | 4.3 (≈ 6.45 µM) | 1.5 (≈ 2.25 µM) |  |
| 2-Bromomethyl-3-[1-(2(or 6)-bromo-3,4-methylenedioxy)-phenyl-1'-(2-bromo-3,4,5-trimethoxy)phenyl]methyl γ-butyrolactone [Compound 9] |  |  |  |  | 5.6 | 5.7 | 4.5 | 5.8 |  |
